Experimental data reported in patent publication US10807970B2 (priority 2016, dated 2020).

molecular target: human σ1 receptor (Homo sapiens, UniProt Q99720); test: Human σ1 receptor radioligand assay ([3H](+)-pentazocine, transfected HEK-293 membranes); type: binding; parameters: μ and σ1 dual binding: key to the marks not given beside the values; conditions: one class symbol for both Ki-σ1 (human σ1 receptor, A1) and Ki-μ (human μ-opioid receptor, A2)
Protocol: Human σ1 Receptor Radioligand Assay
To investigate binding properties of test compounds to human σ1 receptor, transfected HEK-293 membranes and [^3H](+)-pentazocine (Perkin Elmer, NET-1056), as the radioligand, were used. The assay was carried out with 7 μg of membrane suspension, 5 nM of [^3H](+)-pentazocine in either absence or presence of either buffer or 10 μM Haloperidol for total and non-specific binding, respectively. Binding buffer contained Tris-HCl 50 mM at pH 8. Plates were incubated at 37° C. for 120 minutes. After the incubation period, the reaction mix was then transferred to MultiScreen HTS, FC plates (Millipore), filtered and plates were washed 3 times with ice-cold 10 mM Tris-HCL (pH7.4). Filters were dried and counted at approximately 40% efficiency in a MicroBeta scintillation counter (Perkin-Elmer) using EcoScint liquid scintillation cocktail

Sequence of human σ1 receptor (Q99720 whole entry): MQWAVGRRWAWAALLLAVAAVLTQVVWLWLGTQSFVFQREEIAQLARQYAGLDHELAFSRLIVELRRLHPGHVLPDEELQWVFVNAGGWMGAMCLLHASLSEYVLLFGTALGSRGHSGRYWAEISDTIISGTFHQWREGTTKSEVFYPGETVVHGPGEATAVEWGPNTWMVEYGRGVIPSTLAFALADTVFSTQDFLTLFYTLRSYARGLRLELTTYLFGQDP

Compound	μ and σ1 dual binding
CC1(C)C[C@@](C(=O)c2ccccn2)(N2CCN(Cc3ccccc3)CC2)CCO1 [Example 2, (S)-(4-(4-benzylpiperazin-1-yl)-2,2-dimethyltetrahydro-2H-pyran-4-yl)(pyridin-2-yl)methanone]	++
c1ccc(C2(N3CCN(Cc4ccccn4)CC3)CCOC3(CCCC3)C2)cc1 (stereo not drawn) [Example 120, 1-(9-phenyl-6-oxaspiro[4.5]decan-9-yl)-4-(pyridin-2-ylmethyl)piperazine]	++
CC(C)CCN1CCN([C@@]2(C)CCO[C@@H](C)C2)CC1 [Example 161, 1-((2S,4S)-2,4-dimethyltetrahydro-2H-pyran-4-yl)-4-isopentylpiperazine]	++
CCC1(N2CCN(CCc3ccncc3F)CC2)CCOC(C)(C)C1 (stereo not drawn) [Example 84, 1-(4-ethyl-2,2-dimethyltetrahydro-2H-pyran-4-yl)-4-(2-(3-fluoropyridin-4-yl)ethyl)piperazine]	++
CC1(C)CC(C(=O)c2ccccc2)(N2CCN(Cc3ccccc3)CC2)CCO1 (stereo not drawn) [Example 9, (4-(4-benzylpiperazin-1-yl)-2,2-dimethyltetrahydro-2H-pyran-4-yl)(phenyl)methanone]	++
CC(C)CN1CCN(C2(C(=O)c3ccccc3)CCOC(C)(C)C2)CC1 (stereo not drawn) [Example 11, (4-(4-isobutylpiperazin-1-yl)-2,2-dimethyltetrahydro-2H-pyran-4-yl)(phenyl)methanone]	++
CCC1(N2CCN(CCc3ccncc3)CC2)CCOC(C)(C)C1 (stereo not drawn) [Example 82, 1-(4-ethyl-2,2-dimethyltetrahydro-2H-pyran-4-yl)-4-(2-(pyridin-4-yl)ethyl)piperazine]	++
CC1(C)CC(C(=O)c2ccccn2)(N2CCN(CCc3ncccc3F)CC2)CCO1 (stereo not drawn) [Example 55, (4-(4-(2-(3-fluoropyridin-2-yl)ethyl)piperazin-1-yl)-2,2-dimethyltetrahydro-2H-pyran-4-yl)(pyridin-2-yl)methanone]	++
CC(C)OCCN1CCC([C@@]2(C(=O)c3ccccn3)CCOC(C)(C)C2)CC1 [Example 245, (R)-(4-(1-(2-isopropoxyethyl)piperidin-4-yl)-2,2-dimethyltetrahydro-2H-pyran-4-yl)(pyridin-2-yl)methanone]	++
O=C(c1ccccn1)C1(N2CCN(Cc3ccccc3)CC2)CCOCC1 [Example 8, (4-(4-benzylpiperazin-1-yl)tetrahydro-2H-pyran-4-yl)(pyridin-2-yl)methanone]	++
CC(C)CCN1CCN(C2(C)CCOC(C)(C)C2)CC1 (stereo not drawn) [Example 79, 1-isopentyl-4-(2,2,4-trimethyltetrahydro-2H-pyran-4-yl)piperazine]	++
C[C@@H]1C[C@](C(=O)c2ccccn2)(N2CCN(CCc3ccccc3)CC2)CCO1 [Example 240, ((2R,4R)-2-methyl-4-(4-phenethylpiperazin-1-yl)tetrahydro-2H-pyran-4-yl)(pyridin-2-yl)methanone]	++
CCC1(N2CCN(Cc3ccccc3)CC2)CCOC(C)(C)C1 (stereo not drawn) [Example 38, 1-benzyl-4-(4-ethyl-2,2-dimethyltetrahydro-2H-pyran-4-yl)piperazine]	++
CC1(C)CC(C(=O)c2ccccn2)(C2CCN(Cc3ccccc3F)CC2)CCO1 (stereo not drawn) [Example 110, (4-(1-(2-fluorobenzyl)piperidin-4-yl)-2,2-dimethyltetrahydro-2H-pyran-4-yl)(pyridin-2-yl)methanone]	++

same assay, conditions: one class symbol for both Ki-σ1 (human σ1 receptor, A1) and Ki-μ (human μ-opioid receptor, A2); read-out: μ and σ1 dual binding

Compound	Ki
CC(C)OCCN1CCN(C2(C(=O)c3ccccn3)CCOC(C)(C)C2)CC1 (stereo not drawn) [Example 65, (4-(4-(2-isopropoxyethyl)piperazin-1-yl)-2,2-dimethyltetrahydro-2H-pyran-4-yl)(pyridin-2-yl)methanone]	< 500 nM
CC1(C)CC(CCO)(N2CCN(CCc3ccccc3)CC2)CCO1 (stereo not drawn) [Example 48, 2-(2,2-dimethyl-4-(4-phenethylpiperazin-1-yl)tetrahydro-2H-pyran-4-yl)ethanol]	> 500 nM
C[C@@H]1C[C@@](C(=O)c2ccccn2)(N2CCN(Cc3ccccc3)CC2)CCO1 [Example 25]	> 500 nM
CC(C)CCN1CCN([C@]2(C(=O)c3ccccn3)CCO[C@@H](C)C2)CC1 [Example 98]	< 500 nM
COCCN1CCN(C2(C(=O)c3ccccn3)CCOC(C)(C)C2)CC1 (stereo not drawn) [Example 68, (4-(4-(2-methoxyethyl)piperazin-1-yl)-2,2-dimethyltetrahydro-2H-pyran-4-yl)(pyridin-2-yl)methanone]	> 500 nM
N#Cc1cccc(CN2CCN(C3(C(=O)c4ccccn4)CCOCC3)CC2)c1 [Example 193, 3-((4-(4-picolinoyltetrahydro-2H-pyran-4-yl)piperazin-1-yl)methyl)benzonitrile]	> 500 nM

same assay, conditions: μ and σ1 dual binding, one class symbol for both Ki-σ1 (human σ1 receptor, A1) and Ki-μ (human μ-opioid receptor, A2)

Compound	Ki
CC1(C)CC(C(=O)c2ccccn2)(N2CCN(Cc3cccc(F)c3)CC2)CCO1 (stereo not drawn) [Example 61, (4-(4-(3-fluorobenzyl)piperazin-1-yl)-2,2-dimethyltetrahydro-2H-pyran-4-yl)(pyridin-2-yl)methanone]	< 500 nM
O=C(c1cccc(C(F)(F)F)n1)C1(N2CCN(Cc3ccccc3)CC2)CCOC2(CCCC2)C1 (stereo not drawn) [Example 6, (9-(4-benzylpiperazin-1-yl)-6-oxaspiro[4.5]decan-9-yl)(6-(trifluoromethyl)pyridin-2-yl)methanone]	< 100 nM
CC(C)CCN1CCC([C@@]2(C(=O)c3ccccn3)CCOC(C)(C)C2)CC1 [Example 115, (R)-(4-(1-isopentylpiperidin-4-yl)-2,2-dimethyltetrahydro-2H-pyran-4-yl)(pyridin-2-yl)methanone]	< 500 nM
c1ccc(CN2CCN(C3(Cc4ccccc4)CCOC4(CCCC4)C3)CC2)cc1 (stereo not drawn) [Example 34, 1-benzyl-4-(9-benzyl-6-oxaspiro[4.5]decan-9-yl)piperazine]	< 500 nM
CC(C)C1(N2CCN(CCc3ccccc3F)CC2)CCOC(C)(C)C1 (stereo not drawn) [Example 89, 1-(2-fluorophenethyl)-4-(4-isopropyl-2,2-dimethyltetrahydro-2H-pyran-4-yl)piperazine]	< 500 nM
CC(C)CCN1CCN([C@]2(C(=O)c3ccccn3)CCOC(C)(C)C2)CC1 [Example 133, (R)-(4-(4-isopentylpiperazin-1-yl)-2,2-dimethyltetrahydro-2H-pyran-4-yl)(pyridin-2-yl)methanone]	< 100 nM
CC1(C)C[C@](C(=O)c2ccccn2)(N2CCN(Cc3ccccc3)CC2)CCO1 [Example 3, (R)-(4-(4-benzylpiperazin-1-yl)-2,2-dimethyltetrahydro-2H-pyran-4-yl)(pyridin-2-yl)methanone]	< 100 nM
CC(C)OCCN1CCC(C2(c3ccccn3)CCOC(C)(C)C2)CC1 (stereo not drawn) [Example 75, 2-(4-(1-(2-isopropoxyethyl)piperidin-4-yl)-2,2-dimethyltetrahydro-2H-pyran-4-yl)pyridine]	> 500 nM
CCCC1(N2CCN(CCc3ccccc3)CC2)CCOC(C)(C)C1 (stereo not drawn) [Example 41, 1-(2,2-dimethyl-4-propyltetrahydro-2H-pyran-4-yl)-4-phenethylpiperazine]	< 500 nM
CC(C)CCN1CCCN(C2(C(=O)c3ccccn3)CCOC(C)(C)C2)CC1 (stereo not drawn) [Example 86, (4-(4-isopentyl-1,4-diazepan-1-yl)-2,2-dimethyltetrahydro-2H-pyran-4-yl)(pyridin-2-yl)methanone]	< 100 nM
CC(C)CN1CCN(C2(c3ccccc3)CCOC3(CCCC3)C2)CC1 (stereo not drawn) [Example 33, 1-isobutyl-4-(9-phenyl-6-oxaspiro[4.5]decan-9-yl)piperazine]	< 500 nM
CC(C)COCCN1CCN([C@]2(C(=O)c3ccccn3)CCOC(C)(C)C2)CC1 [Example 137, (R)-(4-(4-(2-isobutoxyethyl)piperazin-1-yl)-2,2-dimethyltetrahydro-2H-pyran-4-yl)(pyridin-2-yl)methanone]	< 500 nM
CC1(C)CC(C(=O)c2ccccn2)(C2CCN(Cc3ccccc3)CC2)CCO1 (stereo not drawn) [Example 22, (4-(1-benzylpiperidin-4-yl)-2,2-dimethyltetrahydro-2H-pyran-4-yl)(pyridin-2-yl)methanone]	< 500 nM
CC(C)CCN1CCN(C2(C(=O)c3ccccc3)CCOC(C)(C)C2)CC1 (stereo not drawn) [Example 12, (4-(4-isopentylpiperazin-1-yl)-2,2-dimethyltetrahydro-2H-pyran-4-yl)(phenyl)methanone]	< 500 nM
CC1(C)CC(c2ccccn2)(C2CCN(Cc3ccccc3)CC2)CCO1 (stereo not drawn) [Example 125, 2-(4-(1-benzylpiperidin-4-yl)-2,2-dimethyltetrahydro-2H-pyran-4-yl)pyridine]	> 500 nM
CC(C)CCN1CCN(C2(C(=O)c3ccccn3)CCOC(C)(C)C2)CC1 (stereo not drawn) [Example 64, (4-(4-isopentylpiperazin-1-yl)-2,2-dimethyltetrahydro-2H-pyran-4-yl)(pyridin-2-yl)methanone]	< 500 nM
C[C@H]1C[C@](C(=O)c2ccccn2)(C2CCN(Cc3ccccc3)CC2)CCO1 [Example 153]	< 500 nM
CC(C)CCN(C)[C@H]1CCN([C@]2(C(=O)c3ccccn3)CCOC(C)(C)C2)C1 [Example 150, ((R)-4-((S)-3-(isopentyl(methyl)amino)pyrrolidin-1-yl)-2,2-dimethyltetrahydro-2H-pyran-4-yl)(pyridin-2-yl)methanone]	< 500 nM
CC(C)CCN(C)[C@H]1CCN([C@@]2(C(=O)c3ccccn3)CCOC(C)(C)C2)C1 [Example 151, ((S)-4-((S)-3-(isopentyl(methyl)amino)pyrrolidin-1-yl)-2,2-dimethyltetrahydro-2H-pyran-4-yl)(pyridin-2-yl)methanone]	< 500 nM
